Target: T1, DHR23α (Drosophila melanogaster, UniProt P34021)
T1 construct: To isolate the full-length DHR23α clones; expressed in transfected cells; host or cells: human 293 cells
T1 sequence (P34021 1-878): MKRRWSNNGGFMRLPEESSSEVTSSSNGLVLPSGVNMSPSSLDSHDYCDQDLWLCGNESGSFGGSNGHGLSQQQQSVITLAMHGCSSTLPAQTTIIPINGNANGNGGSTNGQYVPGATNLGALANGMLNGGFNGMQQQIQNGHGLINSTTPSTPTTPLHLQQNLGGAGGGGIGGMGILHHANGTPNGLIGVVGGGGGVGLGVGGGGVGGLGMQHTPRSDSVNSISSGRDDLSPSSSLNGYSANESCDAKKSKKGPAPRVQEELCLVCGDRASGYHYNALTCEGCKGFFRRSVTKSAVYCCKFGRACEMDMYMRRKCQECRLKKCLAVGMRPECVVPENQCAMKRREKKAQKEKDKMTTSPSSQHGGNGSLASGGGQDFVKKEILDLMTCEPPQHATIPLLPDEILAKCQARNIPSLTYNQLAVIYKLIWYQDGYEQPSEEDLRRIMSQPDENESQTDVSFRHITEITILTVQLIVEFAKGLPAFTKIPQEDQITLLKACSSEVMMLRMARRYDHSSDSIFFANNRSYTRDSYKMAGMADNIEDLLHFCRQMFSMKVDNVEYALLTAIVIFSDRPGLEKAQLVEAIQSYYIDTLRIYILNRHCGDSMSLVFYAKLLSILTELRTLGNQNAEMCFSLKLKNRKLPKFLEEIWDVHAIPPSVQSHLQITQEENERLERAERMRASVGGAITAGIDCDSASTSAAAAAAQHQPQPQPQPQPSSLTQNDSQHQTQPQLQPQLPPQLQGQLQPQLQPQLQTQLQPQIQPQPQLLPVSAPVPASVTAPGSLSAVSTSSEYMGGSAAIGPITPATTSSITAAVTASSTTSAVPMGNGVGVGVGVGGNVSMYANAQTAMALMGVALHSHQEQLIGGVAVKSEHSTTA
T1 sequence (P19793 1-462 partner): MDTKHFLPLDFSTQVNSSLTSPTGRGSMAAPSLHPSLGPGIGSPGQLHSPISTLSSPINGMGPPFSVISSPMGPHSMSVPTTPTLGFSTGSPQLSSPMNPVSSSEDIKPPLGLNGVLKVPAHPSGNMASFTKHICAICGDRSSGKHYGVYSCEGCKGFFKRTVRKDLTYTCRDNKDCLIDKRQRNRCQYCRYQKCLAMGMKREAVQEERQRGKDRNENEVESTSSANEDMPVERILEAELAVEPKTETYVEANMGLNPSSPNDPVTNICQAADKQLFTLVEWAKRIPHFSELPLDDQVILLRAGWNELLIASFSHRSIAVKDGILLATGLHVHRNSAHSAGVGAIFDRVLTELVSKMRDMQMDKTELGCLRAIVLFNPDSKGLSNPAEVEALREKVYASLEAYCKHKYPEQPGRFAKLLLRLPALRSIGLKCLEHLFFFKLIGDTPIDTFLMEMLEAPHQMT
Assay: DHR23α transactivation of EcRE (Ec4M-77CO) CAT reporter in transfected human 293 cells
Assay type: cell-based
Settings: pRSV.DHR23α + pEc4M-77CO (EcRE) CAT reporter, ligand 1 µM, 48 hrs
Method: Figure. 2. […] Human 293 cells were cotransfected with 2.5 µg of the expression plasmid pRSV.DHR23α or the parental expression plasmid pRSV (Control) and 0.5 µgs of the reporter plasmid pEc4M-77CO (EcRE) or pG4M-77CO (GRE). As a control for transfection efficiency, 0.5 µgs of the control plasmid pRSV.hGH was included in the transfection mixture. After transfection, cells were treated without (-) or with alpha-ecdysone (alpha), 20-OH ecdysone (20-OH), polypodine B (ppB), ponasterone A (ponA) or muristeroine A (murA). CAT extracts were harvested 48 hrs after transfection and assayed. The values were normalized to the expression of hGH and the average values of three independent experiments are shown. The "fold induction" represents the level of expression of the reporter gene in cells incubated with hormone divided by the expression of that reporter gene in extracts from cells incubated in the absence of added ligand.
I determined whether DHR23α could function in mammalian cells treated with ecdysteroids to enhance the transcription of a reporter gene containing EcREs linked to the murine mammary tumor virus (MTV) promoter and chloramphenicol acetyltransferase (CAT) gene. Human 293 cells were cotransfected with an RSV-based expression vector that encodes DHR23a and the reporter gene Ec4M-77CO that contains 4 copies of an ecdysone response element (EcRE) from the Drosophila HSP27 promoter (G. Riddihough and H. R. B. Pelham, EMBO J. 6, 3729 [1987]) linked to an MTV promoter-CAT construct.
Human 293 cells were cotransfected with 2.5 µg of the expression plasmid pRSV.DHR23α or the parental expression plasmid pRSV (Control) and 0.5 µgs of the reporter plasmid pEc4M-77CO (EcRE) or pG4M-77CO (GRE). As a control for transfection efficiency, 0.5 µgs of the control plasmid pRSV.hGH was included in the transfection mixture. After transfection, cells were treated without (-) or with alpha-ecdysone (alpha), 20-OH ecdysone (20-OH), polypodine B (ppB), ponasterone A (ponA) or muristeroine A (murA). All candidate ligands were added at a concentration of 1 µM. CAT extracts were harvested 48 hrs after transfection, and assays were performed as described (D. R. Cavener, Nucl. Acids Res. 15, 1353-1361 [1987]). The values were normalized to the expression of hGH and the average values of three independent experiments are shown in Figure 2. The "fold induction" represents the level of expression of the reporter gene in cells incubated with hormone divided by the expression of that reporter gene in extracts from cells incubated in the absence of added ligand.
Cells were transfected with the DHR23α expression vector and Ec4M-77CO reporter gene and treated without (-) or with the following hormones (1 µM): muristerone A (mur A) dexamethasone (Dex) 17β-estradiol (E2), aldosterone (Aldo), corticosterone (Cort) hydroxycorticosterone (OH-Cort) thyroid hormone (T3), promegestone (Promeg) or 1,25-dihydroxy vitamin D3 (VD3). Reporter gene activity was determined as described above for Figure 2.

CC(C)CCC(O)[C@](C)(O)[C@H]1CC[C@@]2(O)C3=CC(=O)C4(O)CC(O)C(O)C[C@]4(C)[C@H]3C(O)C[C@]12C (some centres unmarked) [muristerone A, 2,3,5,11,14,20,22-Heptahydroxy-7-cholesten-6-one]
agonist for DHR23α in mammalian cells (expression of the reporter gene): markedly increased
agonist for DHR23α in mammalian cells (expression of the reporter gene) (listed as muristerone): strong agonist

Source: patent EP0598011B1, “ECDYSTEROID DEPENDENT REGULATION OF GENES IN MAMMALIAN CELLS” (GENENTECH, INC., priority 1991, dated 1993)
